In assay [1] the target is T1, Nitric oxide synthase, inducible (Mus musculus, UniProt P29477).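 Also: inhibition of iNOS enzyme activity measured with L-arginine as substrate; in other assays of this panel Not Active means under 50% inhibition at 10 µM.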
T1 sequence (P29477 whole entry): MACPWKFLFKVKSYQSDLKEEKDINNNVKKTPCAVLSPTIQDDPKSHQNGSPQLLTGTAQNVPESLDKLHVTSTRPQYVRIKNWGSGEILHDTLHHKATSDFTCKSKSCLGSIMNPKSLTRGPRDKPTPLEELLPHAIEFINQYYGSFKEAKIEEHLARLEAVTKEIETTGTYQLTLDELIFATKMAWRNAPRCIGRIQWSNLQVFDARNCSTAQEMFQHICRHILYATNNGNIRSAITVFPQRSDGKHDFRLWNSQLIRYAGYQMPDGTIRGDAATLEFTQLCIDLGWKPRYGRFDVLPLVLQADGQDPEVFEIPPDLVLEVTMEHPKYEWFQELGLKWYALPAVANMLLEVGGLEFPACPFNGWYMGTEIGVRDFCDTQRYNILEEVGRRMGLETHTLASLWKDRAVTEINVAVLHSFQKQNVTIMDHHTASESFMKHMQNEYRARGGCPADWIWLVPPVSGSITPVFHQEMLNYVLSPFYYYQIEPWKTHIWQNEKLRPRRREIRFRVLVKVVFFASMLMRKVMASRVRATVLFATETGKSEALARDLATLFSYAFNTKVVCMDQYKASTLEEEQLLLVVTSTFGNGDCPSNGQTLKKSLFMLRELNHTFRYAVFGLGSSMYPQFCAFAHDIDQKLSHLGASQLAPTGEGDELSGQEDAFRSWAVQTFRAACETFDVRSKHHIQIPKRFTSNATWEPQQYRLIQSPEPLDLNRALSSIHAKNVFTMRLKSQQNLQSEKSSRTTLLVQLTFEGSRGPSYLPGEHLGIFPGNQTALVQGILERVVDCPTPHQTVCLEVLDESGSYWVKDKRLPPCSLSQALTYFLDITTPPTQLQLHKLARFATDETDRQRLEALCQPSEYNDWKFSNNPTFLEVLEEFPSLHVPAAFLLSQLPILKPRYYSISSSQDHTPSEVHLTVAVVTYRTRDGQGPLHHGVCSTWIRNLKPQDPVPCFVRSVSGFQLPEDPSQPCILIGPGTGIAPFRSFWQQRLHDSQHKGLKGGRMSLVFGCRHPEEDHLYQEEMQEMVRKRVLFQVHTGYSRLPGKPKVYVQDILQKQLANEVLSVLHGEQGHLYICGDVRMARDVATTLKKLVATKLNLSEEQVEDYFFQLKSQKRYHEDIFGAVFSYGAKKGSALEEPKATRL
The arrangement: species or system Escherichia coli.

Assay [2] in a line: DRUGMATRIX: Glutamate, AMPA radioligand binding (ligand: [3H] AMPA). As to conditions: Not Active = under 50% inhibition at 10 µM. Format: cell membranes, Rattus norvegicus, Wistar, Cerebral cortex, Membrane.
Assay [3] concerns the target Mitogen-activated protein kinase 3 (Homo sapiens, UniProt P27361). Description: DRUGMATRIX: Protein Serine/Threonine Kinase, ERK1 enzyme inhibition (substrate: Myelin Basic Protein). The arrangement: species or system Escherichia coli. As to conditions: Not Active = under 50% inhibition at 10 µM.
Assay [4] has as its target T2, 5-hydroxytryptamine receptor 1A (Rattus norvegicus, UniProt P19327). Also: in other assays of this panel Not Active means under 50% inhibition at 10 µM.
T2 sequence (P19327 whole entry): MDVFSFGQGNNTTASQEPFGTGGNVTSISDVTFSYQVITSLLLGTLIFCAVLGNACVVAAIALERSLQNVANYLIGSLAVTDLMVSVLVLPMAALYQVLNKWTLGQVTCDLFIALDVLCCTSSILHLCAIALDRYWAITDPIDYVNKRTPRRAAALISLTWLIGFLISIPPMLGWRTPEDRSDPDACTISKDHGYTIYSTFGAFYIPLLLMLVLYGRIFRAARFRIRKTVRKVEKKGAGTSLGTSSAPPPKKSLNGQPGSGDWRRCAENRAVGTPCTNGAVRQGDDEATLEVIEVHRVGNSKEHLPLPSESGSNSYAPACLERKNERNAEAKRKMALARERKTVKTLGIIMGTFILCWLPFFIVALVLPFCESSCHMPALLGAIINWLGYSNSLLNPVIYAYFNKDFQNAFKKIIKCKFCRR
The class given is cell membranes, CHO-K1, Membrane. As to conditions: cho-k1.

Assay [5] can be described thus: DRUGMATRIX: Phosphodiesterase PDE4 enzyme inhibition (substrate: [3H]cAMP + cAMP). To be noted: u-937, Not Active = under 50% inhibition at 10 µM.
Assay [6] in a line: DRUGMATRIX: Sodium/nucleoside co-transporter radioligand binding (ligand: nitrobenzylthioinosine). As to conditions: Not Active = under 50% inhibition at 10 µM. The class given is cell membranes, Cavia porcellus, Dunkin-Hartley, Cerebral cortex, Membrane.
The target in assay [7] is T3, 3-hydroxy-3-methylglutaryl-coenzyme A reductase (Homo sapiens, UniProt P04035).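 Also: enzyme inhibition assay of HMG-CoA reductase using radiolabeled [14C]HMG-CoA as substrate; in other assays of this panel Not Active means under 50% inhibition at 10 µM.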
T3 sequence (P04035 whole entry): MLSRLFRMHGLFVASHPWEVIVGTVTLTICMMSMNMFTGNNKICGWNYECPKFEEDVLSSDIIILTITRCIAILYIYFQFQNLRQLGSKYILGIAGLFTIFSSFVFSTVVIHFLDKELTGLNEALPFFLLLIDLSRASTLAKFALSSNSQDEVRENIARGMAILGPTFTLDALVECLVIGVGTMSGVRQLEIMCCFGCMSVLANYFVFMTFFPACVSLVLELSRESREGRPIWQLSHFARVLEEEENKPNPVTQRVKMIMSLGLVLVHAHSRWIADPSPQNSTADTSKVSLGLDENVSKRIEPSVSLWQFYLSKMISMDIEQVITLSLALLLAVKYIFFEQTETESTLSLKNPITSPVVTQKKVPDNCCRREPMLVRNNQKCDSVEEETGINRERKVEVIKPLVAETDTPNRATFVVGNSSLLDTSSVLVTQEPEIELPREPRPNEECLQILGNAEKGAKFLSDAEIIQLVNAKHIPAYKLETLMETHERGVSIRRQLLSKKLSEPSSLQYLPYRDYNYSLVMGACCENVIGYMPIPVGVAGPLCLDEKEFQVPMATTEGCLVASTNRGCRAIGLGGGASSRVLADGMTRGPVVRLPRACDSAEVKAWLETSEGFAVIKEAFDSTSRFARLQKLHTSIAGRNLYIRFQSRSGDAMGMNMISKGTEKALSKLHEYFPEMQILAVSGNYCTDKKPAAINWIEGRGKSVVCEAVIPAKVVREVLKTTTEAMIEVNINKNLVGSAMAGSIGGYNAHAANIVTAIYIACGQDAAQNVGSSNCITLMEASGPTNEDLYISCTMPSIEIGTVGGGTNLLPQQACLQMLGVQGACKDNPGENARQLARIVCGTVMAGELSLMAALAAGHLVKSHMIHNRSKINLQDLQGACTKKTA
Further details: species or system Escherichia coli.

The structures appear in SMILES notation.

Sequence of Mitogen-activated protein kinase 3 (P27361 whole entry): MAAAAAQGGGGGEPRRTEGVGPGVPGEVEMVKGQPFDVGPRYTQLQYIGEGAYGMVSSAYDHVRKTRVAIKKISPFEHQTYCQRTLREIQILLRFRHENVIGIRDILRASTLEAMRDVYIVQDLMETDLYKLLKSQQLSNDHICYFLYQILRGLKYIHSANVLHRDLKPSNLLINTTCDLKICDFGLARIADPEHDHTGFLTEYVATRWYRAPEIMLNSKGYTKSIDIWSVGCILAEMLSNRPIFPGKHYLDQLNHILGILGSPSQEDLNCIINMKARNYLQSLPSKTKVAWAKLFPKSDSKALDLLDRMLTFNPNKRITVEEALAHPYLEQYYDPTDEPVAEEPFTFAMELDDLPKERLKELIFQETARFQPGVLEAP

As to `COc1c2occc2cc2ccc(=O)oc12` [METHOXSALEN], the IC50 entry in assay [1], in assay [2], in assay [3], in assay [4], in assay [5] and in assay [6] was “Not Active” throughout. Moreover, the IC50 entry in assay [7] is “Not Active”. The Ki entry in assay [2], in assay [5] and in assay [6] was “Not Active” each time.
As for `C[C@H]1C[C@@H]2[C@H]([C@@H](O)C[C@@]3(C)[C@H]2CC[C@]3(O)C(=O)CO)[C@@]2(C)C=CC(=O)C=C12` [METHYLPREDNISOLONE], the IC50 entry in assay [1], in assay [2], in assay [3], in assay [4], in assay [5] and in assay [6] was “Not Active” throughout. Also, in assay [7], the half-maximal inhibitory concentration (IC50) entry was “Not Active”. Besides, the Ki entry in assay [2], in assay [5] and in assay [6] was “Not Active” throughout.
With `COc1cc2nc(N3CCN(C(=O)C4CCCO4)CC3)nc(N)c2cc1OC` (centres undefined) [TERAZOSIN], the IC50 entry in assay [1], in assay [2], in assay [3], in assay [4], in assay [5] and in assay [6] was “Not Active” throughout. Moreover, the IC50 entry in assay [7] was “Not Active”. Moreover, the Ki entry in assay [2], in assay [5] and in assay [6] was “Not Active” in each case.
Consider `CC(c1cc2ccccc2s1)N(O)C(N)=O` (centres undefined) [ZILEUTON], for which the IC50 result in assay [1], in assay [2], in assay [3], in assay [4], in assay [5] and in assay [6] was “Not Active” each time. In addition, the IC50 entry in assay [7] was “Not Active”. Besides, the Ki entry in assay [2], in assay [5] and in assay [6] was “Not Active” each time.
On to `O=C1C(CC[S+]([O-])c2ccccc2)C(=O)N(c2ccccc2)N1c1ccccc1` (centres undefined) [SULFINPYRAZONE], for which the IC50 result in assay [1], in assay [2], in assay [3], in assay [4], in assay [5] and in assay [6] was “Not Active” in each case. Besides, the IC50 result in assay [7] is “Not Active”. Also, the Ki entry in assay [2], in assay [5] and in assay [6] was “Not Active” in each case.
In the case of `CCN1CCC[C@H]1CNC(=O)c1cc(S(N)(=O)=O)ccc1OC` [LEVOSULPIRIDE], the IC50 result in assay [1], in assay [2], in assay [3], in assay [4], in assay [5] and in assay [6] was “Not Active” in each case. In addition, the IC50 result in assay [7] is “Not Active”. Moreover, the Ki entry in assay [2], in assay [5] and in assay [6] was “Not Active” in each case.
For `CCN(CC)CCNC(=O)c1cc(S(C)(=O)=O)ccc1OC` [TIAPRIDE], the IC50 result in assay [1], in assay [2], in assay [3], in assay [4], in assay [5] and in assay [6] was “Not Active” in each case. The IC50 entry in assay [7] is “Not Active”. Also, the Ki entry in assay [2], in assay [5] and in assay [6] was “Not Active” throughout.
Turning to `CCCCOc1cc(CC2CNC(=O)N2)ccc1OC` (centres undefined) [RO-201724], the IC50 result is “Not Active” in assay [1]; “Not Active” in assay [2]; “Not Active” in assay [3]; “Not Active” in assay [4]; 11.3 µM in assay [5] (read-out: IC50); “Not Active” in assay [6]. Moreover, the IC50 result in assay [7] is listed as “Not Active”. In addition, the Ki result in assay [2] and in assay [6] was “Not Active” throughout.

For orientation: IC50 means the concentration at which inhibition is half-maximal.

Values taken from ChEMBL document CHEMBL1909046, “DrugMatrix in vitro pharmacology data”.
